From patent US20220062240A1, “METHODS OF TREATING CANCER USING A CLK INHIBITOR” (BioSplice Therapeutics, Inc., priority 2018, published 2022)
Read-outs that look alike come from different tables or passages of the source. Each block holds one compound with its values, some of them ahead of it.

Columns and labels:
[1] = tested on: SW480 colorectal cancer cells; assay: Gene expression qRT-PCR in SW480 cells; format: cell-based; details: Homo sapiens
Protocol: SW480 colorectal cancer cells were plated at 1×10^4 cells per well into 96-well plates (Olympus). Compounds were diluted in cell culture media and added to the cells at a final concentration of 3 μM. Cells were treated with vehicle (DMSO) and compounds for 24 hours. N=3 biological replicates per conditions.
Following treatment, cells were lysed, and cDNA was generated using the Fastlane Cell cDNA Kit (Qiagen).
384-well PCR plates with pre-spotted primers for CLK1, CLK2, CLK3, DVL2, LRP5, SRSF1, SRSF3, SRSF4, SRSF5, TCF7, TCF7L2 were ordered from Bio-Rad. The generated cDNA, along with a SYBR Green qRT-PCR master mix (SsoAdvanced™ Universal SYBR® Green Supermix, Bio-Rad) was added to the PCR plates.
qRT-PCR was performed on the plates using a CFX384 Touch™ Real-Time PCR Detection System (Bio-Rad) with the manufacturer's recommended thermal cycling conditions.
Data from the qRT-PCR assay was normalized to the GAPDH and HPRT1 housekeeping genes and set gene expression fold change was set relative to vehicle-treated cells using the ΔΔCt analysis method.

[2] = tested on: Wnt-responsive Sp5-Luc reporter in SW480 colon carcinoma cells; assay: Wnt activity screening assay (Sp5-Luc reporter); format: cell-based; details: Homo sapiens
Source text: The screening assay for Wnt activity is described as follows. Reporter cell lines can be generated by stably transducing cancer cell lines (e.g., colon cancer) or primary cells (e.g., IEC-6 intestinal cells) with a lentiviral construct that includes a Wnt-responsive promoter driving expression of the firefly luciferase gene.
SW480 colon carcinoma cells were transduced with a lentiviral vector expressing luciferase with a human Sp5 promoter consisting of a sequence of eight TCF/LEF binding sites. […] These stably transduced SW480 cells were expanded in cell culture and used for all further screening activities. […] For Sp5-Luc reporter gene assays, the cells were plated at 4,000 cells/well in 384-well plates with a DMEM medium containing 1% fetal bovine serum, and 1% Penicillin-Streptomycin and incubated for 36 to 48 hours at 37° C. and 5% CO2. Following incubation, 15 μL of BriteLite Plus luminescence reagent (Perkin Elmer) was added to each well of the 384-well assay plates. The plates were placed on an orbital shaker for 2 min and then luminescence was quantified using the Envision (Perkin Elmer) plate reader.

[3] = molecular target: CLK3 (Homo sapiens, UniProt P49761); assay: CLK3 kinase activity assay (Z-lyte, Ser/Thr 18 peptide)
Chain of CLK3 (P49761 whole entry): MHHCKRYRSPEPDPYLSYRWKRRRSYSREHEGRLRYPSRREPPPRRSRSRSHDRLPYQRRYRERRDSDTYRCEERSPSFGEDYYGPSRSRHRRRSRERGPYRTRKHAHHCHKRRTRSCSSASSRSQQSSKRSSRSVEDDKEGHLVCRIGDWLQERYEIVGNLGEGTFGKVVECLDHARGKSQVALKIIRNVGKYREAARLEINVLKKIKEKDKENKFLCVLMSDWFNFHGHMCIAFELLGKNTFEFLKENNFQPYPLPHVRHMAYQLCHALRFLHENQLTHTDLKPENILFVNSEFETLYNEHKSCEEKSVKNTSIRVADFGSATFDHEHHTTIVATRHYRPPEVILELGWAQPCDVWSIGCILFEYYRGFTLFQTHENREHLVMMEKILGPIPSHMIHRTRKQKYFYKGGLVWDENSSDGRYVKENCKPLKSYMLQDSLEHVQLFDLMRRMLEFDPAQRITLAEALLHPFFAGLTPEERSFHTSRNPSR

[4] = molecular target: T1, CLK2 (Homo sapiens, UniProt P49760); assay: CLK2 kinase activity assay (Z-lyte, Ser/Thr 6 peptide); format: biochemical
T1 construct: purchased Thermo Fisher (Life Technologies), Z'-LYTE Kinase Assay Kits
T1 sequence (P49760 whole entry): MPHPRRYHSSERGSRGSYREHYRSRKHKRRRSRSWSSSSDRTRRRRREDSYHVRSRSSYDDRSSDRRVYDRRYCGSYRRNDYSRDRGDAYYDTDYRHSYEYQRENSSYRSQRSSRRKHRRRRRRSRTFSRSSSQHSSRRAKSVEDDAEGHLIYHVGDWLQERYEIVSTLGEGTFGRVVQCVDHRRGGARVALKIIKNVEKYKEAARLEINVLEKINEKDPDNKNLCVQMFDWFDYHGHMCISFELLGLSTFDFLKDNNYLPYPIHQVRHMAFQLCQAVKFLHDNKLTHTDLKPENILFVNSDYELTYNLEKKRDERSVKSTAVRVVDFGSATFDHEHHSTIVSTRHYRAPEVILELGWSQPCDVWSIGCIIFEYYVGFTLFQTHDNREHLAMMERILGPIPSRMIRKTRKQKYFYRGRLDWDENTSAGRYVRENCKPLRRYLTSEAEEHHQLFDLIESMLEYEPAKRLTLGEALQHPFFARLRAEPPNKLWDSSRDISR
Protocol: All reactions were performed in duplicate.

[5] = SW480, 3 μM, 24 hours, relative to DMSO, read-out: gene expression fold change CLK1
[6] = SW480, 3 μM, 24 hours, relative to DMSO, read-out: gene expression fold change CLK2
[7] = SW480, 3 μM, 24 hours, relative to DMSO, read-out: gene expression fold change CLK3
[8] = SW480, 3 μM, 24 hours, relative to DMSO, read-out: gene expression fold change DVL2
[9] = SW480, 3 μM, 24 hours, relative to DMSO, read-out: gene expression fold change LRP5
[10] = SW480, 3 μM, 24 hours, relative to DMSO, read-out: gene expression fold change SRSF1
[11] = SW480, 3 μM, 24 hours, relative to DMSO, read-out: gene expression fold change SRSF3
[12] = SW480, 3 μM, 24 hours, relative to DMSO, read-out: gene expression fold change SRSF4
[13] = SW480, 3 μM, 24 hours, relative to DMSO, read-out: gene expression fold change SRSF5
[14] = SW480, 3 μM, 24 hours, relative to DMSO, read-out: gene expression fold change TCF7
[15] = SW480, 3 μM, 24 hours, relative to DMSO, read-out: gene expression fold change TCF7L2
[16] = SW480 Sp5-Luc reporter, 36 to 48 hours, read-out: EC50
[17] = recombinant CLK2 kinase, ATP 60 μM, read-out: EC50

EC50 [2, 16]: 253 nM
SMILES: Cc1n[nH]c2ccc(-c3cncc(OC[C@H](N)Cc4ccccc4)n3)cc12 [Compound 2]
fold induction at 3 µM [1, 5]: 0.01
fold induction at 3 µM [1, 6]: 0.05
fold induction at 3 µM [1, 7]: 0.02
fold induction at 3 µM [1, 8]: 0.05
fold induction at 3 µM [1, 9]: 0.07
fold induction at 3 µM [1, 10]: 0.13
fold induction at 3 µM [1, 11]: 0.05
fold induction at 3 µM [1, 12]: 0.02
fold induction at 3 µM [1, 13]: 0.14
fold induction at 3 µM [1, 14]: 0.32
fold induction at 3 µM [1, 15]: 0.13

EC50 [2, 16]: 356 nM
SMILES: Cc1n[nH]c2ccc(-c3cncc(OC[C@@H](N)Cc4ccccc4)c3)cc12 [Compound 3]

EC50 [2, 16]: 65 nM
EC50 [3]: 17 nM
SMILES: CN(C)CCN(C)c1ccc(NC(=O)c2n[nH]c3ccc(-c4cncc(CN5CCCCC5)c4)cc23)cn1 [Compound 6]
fold induction at 3 µM [1, 5]: 0.04
fold induction at 3 µM [1, 6]: 0.06
fold induction at 3 µM [1, 7]: 0.03
fold induction at 3 µM [1, 8]: 0.06
fold induction at 3 µM [1, 9]: 0.05
fold induction at 3 µM [1, 10]: 0.1
fold induction at 3 µM [1, 11]: 0.04
fold induction at 3 µM [1, 12]: 0.01
fold induction at 3 µM [1, 13]: 0.1
fold induction at 3 µM [1, 14]: 0.31
fold induction at 3 µM [1, 15]: 0.07

EC50 [4, 17]: 1 nM
EC50 [2, 16]: 41 nM
EC50 [3]: 10 nM
SMILES: Cc1ccc(-c2cncc3[nH]c(-c4n[nH]c5ccc(-c6cncc(N)c6)nc45)nc23)s1 [Compound 7]

EC50 [4, 17]: 1 nM
EC50 [2, 16]: 623 nM
EC50 [3]: 22 nM
SMILES: Cc1ncc(-c2ccc3[nH]nc(-c4nc5c(-c6cc(F)cc(NCCN(C)C)c6)ccnc5[nH]4)c3n2)n1C [Compound 8]

SMILES: CNc1nc(NCc2ncccn2)c2c(-c3ccc4ncccc4c3)c[nH]c2n1 [Compound 9]
fold induction at 3 µM ([1]; SW480, 24 h, read-out: gene expression fold change CLK1): 0.16
fold induction at 3 µM ([1]; SW480, 24 h, read-out: gene expression fold change CLK2): 0.06
fold induction at 3 µM ([1]; SW480, 24 h, read-out: gene expression fold change CLK3): 0.51
fold induction at 3 µM ([1]; SW480, 24 h, read-out: gene expression fold change DVL2): 0.21
fold induction at 3 µM ([1]; SW480, 24 h, read-out: gene expression fold change LRP5): 0.18
fold induction at 3 µM ([1]; SW480, 24 h, read-out: gene expression fold change SRSF1): 1.91
fold induction at 3 µM ([1]; SW480, 24 h, read-out: gene expression fold change SRSF3): 0.62
fold induction at 3 µM ([1]; SW480, 24 h, read-out: gene expression fold change SRSF4): 0.62
fold induction at 3 µM ([1]; SW480, 24 h, read-out: gene expression fold change SRSF5): 0.56
fold induction at 3 µM ([1]; SW480, 24 h, read-out: gene expression fold change TCF7): 0.2
fold induction at 3 µM ([1]; SW480, 24 h, read-out: gene expression fold change TCF7L2): 0.29
EC50 ([2]; SW480): 92 nM

EC50 [4, 17]: 1 nM
EC50 [3]: 10 nM
SMILES: Cn1ncc(-c2ccc3cnc(NC(=O)c4ccnc(N5CCOCC5)c4)cc3c2)c1CN1CCOCC1 [Compound 13]

EC50 [4, 17]: 1 nM
EC50 [3]: 30 nM
SMILES: Cn1cncc1-c1ccc2cnc(NC(=O)c3ccc4c(c3)CNC4)cc2c1 [Compound 15]

EC50 [4, 17]: 1 nM
EC50 [2, 16]: 165 nM
SMILES: Cc1ncc(C(=O)Nc2cc3cc(-c4cnc(C)n4C)ccc3cn2)s1 [Compound 16]
fold induction at 3 µM [1, 5]: 0.22
fold induction at 3 µM [1, 6]: 0.06
fold induction at 3 µM [1, 7]: 0.59
fold induction at 3 µM [1, 8]: 0.18
fold induction at 3 µM [1, 9]: 0.17
fold induction at 3 µM [1, 10]: 1.92
fold induction at 3 µM [1, 11]: 0.61
fold induction at 3 µM [1, 12]: 0.66
fold induction at 3 µM [1, 13]: 0.54
fold induction at 3 µM [1, 14]: 0.21
fold induction at 3 µM [1, 15]: 0.14

EC50 [4, 17]: 2 nM
EC50 [3]: 161 nM
SMILES: CC(C)Oc1ccc(C(=O)Nc2cc3cc(-c4cnc5n4CCNC5)ccc3cn2)cc1 [Compound 17]

EC50 [4, 17]: 2 nM
EC50 [3]: 54 nM
SMILES: CN1CCN(c2ccc(C(=O)Nc3cc4cc(-c5nncs5)ccc4cn3)cn2)CC1 [Compound 18]

EC50 [4, 17]: 2 nM
EC50 [3]: 14 nM
SMILES: Cc1nnc(-c2ccc3cnc(NC(=O)c4ccnc(SC5CCN(C)CC5)c4)cc3c2)s1 [Compound 19]

EC50 [4, 17]: 1 nM
EC50 [2, 16]: 151 nM
SMILES: O=C(Nc1cc2cc(-c3cncc(NCC4(F)CNC4)n3)ccc2cn1)C1CC1 [Compound 21]
fold induction at 3 µM [1, 5]: 0.02
fold induction at 3 µM [1, 6]: 0.03
fold induction at 3 µM [1, 7]: 0.05
fold induction at 3 µM [1, 8]: 0.15
fold induction at 3 µM [1, 9]: 0.07
fold induction at 3 µM [1, 10]: 0.22
fold induction at 3 µM [1, 11]: 0.07
fold induction at 3 µM [1, 12]: 0.03
fold induction at 3 µM [1, 13]: 0.16
fold induction at 3 µM [1, 14]: 0.48
fold induction at 3 µM [1, 15]: 0.1

EC50 [2, 16]: 26 nM
EC50 [3]: 9 nM
SMILES: CN1CCC(n2cc(C(=O)Nc3cc4cc(-c5cncc6[nH]ccc56)ccc4cn3)cn2)CC1 [Compound 23]
fold induction at 3 µM [1, 5]: 0.02
fold induction at 3 µM [1, 6]: 0.03
fold induction at 3 µM [1, 7]: 0.02
fold induction at 3 µM [1, 8]: 0.11
fold induction at 3 µM [1, 9]: 0.04
fold induction at 3 µM [1, 10]: 0.3
fold induction at 3 µM [1, 11]: 0.09
fold induction at 3 µM [1, 12]: 0.02
fold induction at 3 µM [1, 13]: 0.24
fold induction at 3 µM [1, 14]: 0.25
fold induction at 3 µM [1, 15]: 0.12

SMILES: Cc1ccc([N+](=O)[O-])cc1S(=O)(=O)N(C)/N=C/c1cnc2ccc(Br)cn12 [Compound 26]
EC50 [4]: 1 nM
EC50 ([2]; SW480): 39 nM
EC50 [3]: 15 nM

EC50 [4, 17]: 3 nM
EC50 [2, 16]: 369 nM
EC50 [3]: 313 nM
SMILES: Cc1n[nH]c2ccc(-c3cncc(OC4CCNCC4(F)F)n3)cc12 (centres unmarked) [Compound 28]

EC50 [4, 17]: 5 nM
EC50 [2, 16]: 14 nM
EC50 [3]: 62 nM
SMILES: Fc1cccc(-c2cncc3[nH]c(-c4n[nH]cc4/C=C/c4cccnc4)nc23)c1 [Compound 29]

EC50 [2, 16]: 13 nM
SMILES: NC(=O)c1ccc(NC(=O)c2n[nH]c3ccc(-c4cncc(CN5CCCCC5)c4)cc23)cn1 [Compound 30]

EC50 [2, 16]: 4 nM
SMILES: CN1CCN(c2ccc(NC(=O)c3n[nH]c4ccc(-c5cncc(CN6CCC(F)(F)C6)c5)cc34)cn2)CC1 [Compound 31]

EC50 [4, 17]: 1 nM
EC50 [2, 16]: 85 nM
EC50 [3]: 13 nM
SMILES: CN1CCC(Oc2ccc(NC(=O)c3n[nH]c4ccc(-c5cncc(N)c5)cc34)cc2)CC1 [Compound 32]

EC50 [2, 16]: 30 nM
SMILES: Nc1ncc(NC(=O)c2n[nH]c3ccc(-c4cncc(CN5CCCCC5)c4)cc23)cn1 [Compound 33]

EC50 [2, 16]: 176 nM
SMILES: CN(C)C(=O)Nc1cncc(-c2ccc3[nH]nc(C(=O)Nc4cccnc4)c3c2)c1 [Compound 34]

EC50 [4, 17]: 1 nM
EC50 [3]: 20 nM
SMILES: CN1CCC(Oc2cc(NC(=O)c3n[nH]c4cc(F)c(-c5cnn(C)c5)cc34)ccn2)CC1 [Compound 35]

EC50 [2, 16]: 37 nM
SMILES: CN1CCN(Cc2ccc(NC(=O)c3n[nH]c4ccc(-c5cccnc5)cc34)cn2)CC1 [Compound 36]

EC50 [2, 16]: 97 nM
SMILES: COc1ccc(NC(=O)c2n[nH]c3ccc(-c4cncc(CO)c4)cc23)cn1 [Compound 37]

EC50 [4, 17]: 1 nM
EC50 [2, 16]: 13 nM
EC50 [3]: 7 nM
SMILES: CN(C)Cc1cncc(-c2ccc3[nH]nc(-c4nc5c(-c6cccc(F)c6)cncc5[nH]4)c3c2)c1 [Compound 38]

EC50 [4, 17]: 4 nM
EC50 [2, 16]: 199 nM
EC50 [3]: 10 nM
SMILES: CC(C)CC(=O)Nc1cncc(-c2ccc3[nH]nc(-c4nc5c(-c6cc(F)cc(OCCN(C)C)c6)cncc5[nH]4)c3c2)c1 [Compound 39]

EC50 [4, 17]: 3 nM
EC50 [2, 16]: 13 nM
EC50 [3]: 14 nM
SMILES: CCC(=O)Nc1cncc(-c2ccc3[nH]nc(-c4nc5c(-c6cccnc6)cncc5[nH]4)c3c2)c1 [Compound 40]

EC50 [2, 16]: 86 nM
SMILES: CN1CCN(c2nccc3[nH]c(-c4n[nH]c5cc(F)c(-c6cnn(C)c6)cc45)nc23)CC1 [Compound 42]

SMILES: O=C(Nc1cc2cc(-c3cnn4c3CN(CCF)CC4)ccc2cn1)c1ccnc(OC2CNC2)c1 [Compound 79]
EC50 [4]: 4.4 nM
EC50 [3]: 44.3 nM
